Reference: patent US20260231940A1, “METHOD FOR ATTRACTING COCKROACHES, COCKROACH ATTRACTANT, AND METHOD FOR CONTROLLING COCKROACHES” (SUMITOMO CHEMICAL COMPANY, LIMITED, priority 2023, published 2026)

Columns and labels:
Assay type in all cases: in vivo
Blattella germanica [1] = experiment: Test Example 5: choice test, hydroprene-applied filter paper uneven sheet; conditions: 500 mg hydroprene per 1 m^2, 24 hours after release, total of eight repetitions
Text: (§1) FIG. 3 is a planar view schematically illustrating the test space used in Test Examples 1 to 5. […] Depending on the test system, a container 2 containing solid feed for MF mouse rats as bait and a container 3 containing water were placed between these two uneven sheets 1.
(§2) A sheet formed from a filter paper (ADVANTEC qualitative filter paper No. 2, manufactured by Toyo Roshi Kaisha, Ltd.) wherein the sheet was a triangular wave shape in its cross-sectional shape as shown in FIG. 2(b) was used. Specifically, an uneven sheet (a corrugated sheet) the depth of the concave portion and the height of the convex portion of which were each 17 mm, and where the concave portions and the convex portions were formed in a corrugated shape so that the angle at the vertices of the concave portions might be 60° was prepared.
(§3) As the uneven sheets 1 placed in the test space 20, all those being 10 cm×16 cm in size were used, and they were placed so that the ridge lines of the corrugations of the uneven sheets 1 were parallel to the lengthwise direction of the test space 20. […]
In the test space 20 prepared as described above, Blattella germanica (30 individuals in total) were released, and 24 hours later, the number of individuals settled in each uneven sheet 1 and the number of individuals present in the test space 20 other than the uneven sheets 1 were counted. […]

Blattella germanica [2] = experiment: Test Example 4: choice test, methoprene-applied filter paper uneven sheet; conditions: 1 g methoprene per 1 m^2, four hours after release, total of eight repetitions
Text: as §1, §2, §3
(§4) In the test space 20 prepared as described above, Blattella germanica (30 individuals in total) were released, and four hours later, the number of individuals settled in each uneven sheet 1 and the number of individuals present in the test space 20 other than the uneven sheets 1 were counted. […]

Blattella germanica [3] = experiment: Test Example 2: choice test, pyriproxyfen amount series on uneven sheet; conditions: four hours after release, total of four repetitions; for Number of individuals Uneven sheet (chemical applied): 120 released
Experimental: (§5) Specifically, an uneven sheet (a corrugated sheet) the depth of the concave portion and the height of the convex portion of which were each 10 mm, and where the concave portions and the convex portions were formed in a corrugated shape so that the angle at the vertices of the concave portion might be 53° was prepared. The uneven sheet was used in Test Example 1 and Test Example 2.
as §1
As the uneven sheets 1 placed in the test space 20, all those being 10 cm×16 cm in size were used, and they were placed so that the ridge lines of the corrugations of the uneven sheets 1 were parallel to the lengthwise direction of the test space 20. Additionally, containers 2 and 3 containing feed and water respectively were placed between the facing uneven sheets 1.
In the test space 20 prepared as described above, Blattella germanica (30 individuals in total) were released, and four hours later, the number of individuals settled in each uneven sheet 1 and the number of individuals present in the test space 20 other than the uneven sheets 1 were counted. The above test was conducted in four repetitions.

[4] = system: Plodia interpunctella larvae; experiment: Test Example 1: choice test, chemical-applied versus blank uneven sheet; conditions: 1 g pyriproxyfen per 1 m^2, four days after release, total of two repetitions
Experimental: as §5, §1
(§6) As the uneven sheets 1 placed in the test space 20, all those being 10 cm×10 cm in size were used, and they were placed so that the ridge lines of the corrugations of the uneven sheets 1 were parallel to the lengthwise direction of the test space 20.
(§7) As test insects, Periplaneta americana nymphs, Cimex lectularius, Dermanyssus gallinae, Sitophilus zeamais, and Plodia interpunctella larvae were used. Cimex lectularius and Dermanyssus gallinae were released into each test space 20 where feed and water had not been placed and only corrugated sheets 1 had been placed. Periplaneta americana nymphs were released into test space 20 where containers 2 and 3 containing feed and water respectively placed between the facing uneven sheets 1 as shown in FIG. 3. Sitophilus zeamais and Plodia interpunctella larvae were released into each test space 20 where feed and water had not been placed and brown rice had been placed on uneven sheets 1 as a hiding place for the test insects.
(§8) Four days after releasing the insects, the number of individuals settled in each uneven sheet 1 and the number of individuals present in the test space 20 other than the uneven sheets 1 were counted. The above test was conducted in two repetitions.

Sitophilus zeamais = experiment: as above; conditions: 1 g pyriproxyfen per 1 m^2, four days after release, total of two repetitions
Experimental: as §5, §1, §6, §7, §8

Dermanyssus gallinae = experiment: as above; conditions: 1 g pyriproxyfen per 1 m^2, four days after release, total of two repetitions
Experimental: as §5, §1, §6, §7, §8

[5] = system: Periplaneta americana nymphs; experiment: as above
Experimental: as §5, §1, §6, §7, §8

Cimex lectularius = experiment: as above; conditions: 1 g pyriproxyfen per 1 m^2, four days after release, total of two repetitions
Experimental: as §5, §1, §6, §7, §8

Blattella germanica [6] = experiment: Test Example 3: choice test, bistrifluron-applied filter paper uneven sheet; conditions: 1 g bistrifluron per 1 m^2, four hours after release, total of four repetitions
Text: as §1, §2, §3, §4

[7] = 60 released, brown rice on sheets

CCOC(=O)/C=C(C)/C=C/CC(C)CCCC(C)C (centres unmarked) [hydroprene]
Number of individuals Uneven sheet (chemical applied) (Blattella germanica [1]; 240 released): 160 | Hiding rate (Chemical applied / Blank) (Blattella germanica [1]): 2.13

COC(C)(C)CCC[C@H](C)C/C=C/C(C)=C/C(=O)OC(C)C (racemic) [methoprene]
Number of individuals Uneven sheet (chemical applied) (Blattella germanica [2]; 240 released): 152 | Hiding rate (Chemical applied / Blank) (Blattella germanica [2]): 2.92

CC(COc1ccc(Oc2ccccc2)cc1)Oc1ccccn1 (centres unmarked) [pyriproxyfen]
Number of individuals Uneven sheet (chemical applied) (Blattella germanica [3]; 10 mg/m^2 pyriproxyfen): 78 | Hiding rate (Chemical applied / Blank) (Blattella germanica [3]; 10 mg/m^2 pyriproxyfen): 1.95 | Number of individuals Uneven sheet (chemical applied) (Blattella germanica [3]; 100 mg/m^2 pyriproxyfen): 70 | Hiding rate (Chemical applied / Blank) (Blattella germanica [3]; 100 mg/m^2 pyriproxyfen): 1.52 | Number of individuals Uneven sheet (chemical applied) (Blattella germanica [3]; 500 mg/m^2 pyriproxyfen): 98 | Hiding rate (Chemical applied / Blank) (Blattella germanica [3]; 500 mg/m^2 pyriproxyfen): 5.44 | Number of individuals Uneven sheet (chemical applied) (Blattella germanica [3]; 1000 mg/m^2 pyriproxyfen): 91 | Hiding rate (Chemical applied / Blank) (Blattella germanica [3]; 1000 mg/m^2 pyriproxyfen): 3.25 | Number of individuals Uneven sheet (chemical applied) (Blattella germanica [3]; 2000 mg/m^2 pyriproxyfen): 67 | Hiding rate (Chemical applied / Blank) (Blattella germanica [3]; 2000 mg/m^2 pyriproxyfen): 1.40 | Number of individuals Uneven sheet (chemical applied) (Blattella germanica [3]; 5000 mg/m^2 pyriproxyfen): 71 | Hiding rate (Chemical applied / Blank) (Blattella germanica [3]; 5000 mg/m^2 pyriproxyfen): 1.54 | Number of individuals Uneven sheet (chemical applied) [4, 7]: 23 | Hiding rate (Chemical applied / Blank) [4]: 0.62 | Number of individuals Uneven sheet (chemical applied) (Sitophilus zeamais; [7]): 21 | Hiding rate (Chemical applied / Blank) (Sitophilus zeamais): 0.64 | Number of individuals Uneven sheet (chemical applied) (Dermanyssus gallinae; 59 released, no feed or water): 17 | Hiding rate (Chemical applied / Blank) (Dermanyssus gallinae): 0.94 | Number of individuals Uneven sheet (chemical applied) ([5]; Periplaneta americana nymphs, 1 g pyriproxyfen per 1 m^2, four days after release, 60 released, total of two repetitions, feed and water placed): 39 | Hiding rate (Chemical applied / Blank) ([5]; Periplaneta americana nymphs, 1 g pyriproxyfen per 1 m^2, four days after release, total of two repetitions): 1.86 | attracting effect ([5]; conclusion from Table 1: Periplaneta americana nymphs versus the four other test species): specific to cockroaches | Number of individuals Uneven sheet (chemical applied) (Cimex lectularius; 30 released, no feed or water): 12 | Hiding rate (Chemical applied / Blank) (Cimex lectularius): 0.75

O=C(NC(=O)c1c(F)cccc1F)Nc1cc(C(F)(F)F)cc(C(F)(F)F)c1Cl [bistrifluron]
Number of individuals Uneven sheet (chemical applied) (Blattella germanica [6]; 120 released): 71 | Hiding rate (Chemical applied / Blank) (Blattella germanica [6]): 2.29
